Assays:
PcaV = PcaV synthetic promoter/operator GFP reporter in E. coli; type: cell-based, Streptomyces coelicolor; details: E. coli harboring PcaV plasmid, grown in supplemented medium
From the text: As an example, Streptomyces coelicolor harbors an aTF, PcaV (SC06704), a member of the MarR family, which relieves repression on its operator in the presence of 3,4-dihydroxybenzoic acid. When the intergenic region between PcaV and Pcal was cloned into position to promote the expression of GFP on a plasmid which can be maintained in E. coli, no GFP expression was observed even though no known protein was present which could bind the operator site. […] Upon the introduction of the PcaV protein under a constitutive promoter, the GFP expression was suppressed. […] See FIG. 1, FIG. 2, FIG. 3, FIG. 21.

FapR = FapR GFP reporter in E coli; type: cell-based, Staphylococcus aureus; details: increasing concentrations
From the text: (§1) Staphylococcus aureus FapR responds to intracellular levels of malonyl-CoA. Cerulenin is an inhibitor of fatty acid biosynthesis and is known to increase the intracellular pool of malonyl-CoA at subtoxic concentrations.

E coli = assay: Toxicity in FapR chassis dose response (OD600 and fluorescence channels); type: cell-based; details: highest concentration
From the text: as §1

TtgR = biological target: T1, TtgR (Pseudomonas putida, UniProt Q88N29); assay: TtgR-GFP sensor-reporter system in E. coli, response to naringenin; type: cell-based; details: TtgR-binding synthetic operator promoter
T1 construct: Wild type of TtgR; expressed in transfected cells; host or cells: E. coli
From the text: TtgR regulates the TtgABC efflux pump in Pseudomonas putida, and responds to antibiotics such as chloramphenicol (Teran, et al) as well as the flavanones such as naringenin (Raman, et al).
See FIG. 8, FIG. 9, FIG. 10, FIG. 11, FIG. 13.

FadR = type: cell-based, Vibrio cholerae; details: E coli; increased levels

T1 sequence (Q88N29 whole entry): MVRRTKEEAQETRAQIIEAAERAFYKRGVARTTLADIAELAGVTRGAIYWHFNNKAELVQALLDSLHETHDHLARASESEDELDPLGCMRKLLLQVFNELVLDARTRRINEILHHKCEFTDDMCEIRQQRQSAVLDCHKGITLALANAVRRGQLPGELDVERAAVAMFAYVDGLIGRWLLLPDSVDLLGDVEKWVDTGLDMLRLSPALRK

O=C(O)c1ccc(O)c(O)c1 [3,4-dihydroxybenzoic acid]
GFP expression (PcaV): expression of GFP was observed

C/C=C/C/C=C/CCC(=O)[C@H]1O[C@H]1C(N)=O [cerulenin]
GFP reporter expression (FapR): increased expression of a GFP reporter
toxicity (E coli): toxicity at highest concentration

O=C1C[C@@H](c2ccc(O)cc2)Oc2cc(O)cc(O)c21 [naringenin]
GFP expression (TtgR): drive GFP expression

CCCCCCCC/C=C\CCCCCCCC(=O)O [oleic acid]
GFP reporter expression (FadR): driving expression of a GFP reporter
